{
  "source": "patent US20070203079A1",
  "about": "“Methods of using small molecule compounds for neuroprotection” (priority 2005, published 2007)",
  "key": {"[1]": {"test_system": "worms expressing Punc-54::Q82::GFP+Punc-54::torsinA with wt torsinA only", "test": "Protein aggregate assay in worms with wt torsinA only", "format": "in vivo, C. elegans", "method": "(§1) C elegans nematodes were grown at 20° C. on NGM plates as described by Brenner (Brenner, Genetics, 1974, 77: 71-94). Several transgenic C. elegans lines were used for primary screens of the Prestwick small molecule library. A transgenic worm line expressing Punc-54::Q82-GFP; with both wild type (“wt”) (Punc=54: :torsinA) or mutant (Punc-54::torsinA(ΔE)). Torsin-A expresses a phenotype that results in visible protein aggregation under fluorescent microscope. Transgenic worms were plated on drug plates and progeny were studied for a return to soluble protein.\n(§2) Drugs were administered to C. elegans according to a standard procedure (Rand and Johnson, Methods Cell Biol, 1995, 48: 187-204), by mixing the solubilized drug with the agar medium on which the worms are grown. This mode of administration allows the continuous exposure of worms to the drug.\nEach drug was first dissolved in an appropriate solvent, followed by adding the drug solution into pre-autoclaved media, with the volume of drug solution already taken into account. […]\n(§3) The screening assays used to identify the compounds use protein aggregation readouts to determine the specificities of molecular action. […]\n(§4) The methods for the aggregate analysis assay are described in Caldwell et al. (Hum Mol Genetics, 2003, 12(3): 307-319). […] MetaMorph Software (Universal Imaging Inc.) was used for pseudocoloration of images, image overlay, and aggregate size quantitation. For each worm line analyzed, average aggregate size was determined by capturing images of all aggregates in the posterior region of 30 L3-staged animals (for Q82::GFP aggregates) or all aggregates in 30 adult animals/day (for Q19::GFP analyses) at 1000× magnification. […]\n(§5) To see the effect of the candidate compounds on suppressing protein misfolding and aggregation, five gravid adult worms were placed onto each drug plate and grown at 20° C. for approximately 3 days. Thirty Fl worms at L3 stage and young adult stage were counted for aggregate number."}, "[2]": {"test_system": "worms containing Punc-54::Q82::GFP+Punc-54::torsinA+Punc54::torsinA (ΔE)", "test": "Screen for reduction of polyglutamine protein aggregates in worms with wt and mutant torsinA", "format": "in vivo, C. elegans", "settings": "differentiated by Q82::GFP lines without torsinA, with wt torsinA or with mutant torsinA", "method": "as §1, §2\nEach drug was first dissolved in an appropriate solvent, followed by adding the drug solution into pre-autoclaved media, with the volume of drug solution already taken into account. […] Each plate was seeded with 100 μl concentrated E. coli OP50 bacteria.\nas §3, §4, §5"}},
  "note": "Counter-ions that a name gives are not always drawn.",
  "data": [
    {"smiles": "C=N[C@@H](C(=O)N[C@@H]1C(=O)N2[C@@H]1SC(C)(C)[C@@H]2C(=O)O)c1ccccc1", "note": "[Compound 235, Metampicillin sodium salt]", "values": [
      {"measurement": "reduction of protein aggregation", "setting": "[1]", "value": "reduced protein aggregation"},
      {"measurement": "Specificity in worm assay", "setting": "[2]", "value": "wt torsinA"}
    ]}
  ]
}
